Laboratory results published in patent EP1170012A1, “CEREBROVASCULAR REGENERATION/RECONSTRUCTION PROMOTERS AND NERVE TISSUE SECONDARY DEGENERATION INHIBITORS COMPRISING GINSENOSIDE RB 1?” (priority 1999, dated 2000).
Read-outs that look alike come from different tables or passages of the source. Marks after values point to notes of the source that are not given here.

Legend:
SH-SP rats [1] = assay: Secondary degeneration of the thalamus: thalamic area ratio and nerve cell count in the VP thalamic nucleus; type: in vivo; conditions: mean ± SE; for ratio of area (%), left thalamic area to right thalamic area: ischemic side/intact side × 100, p < 0.05; for count of nerve cells: per 0.099 mm^2 of the ventral posterior nucleus of the thalamus, p < 0.01
Experimental: Further, paraffin sections prepared from brain samples at the level 3.6 mm posterior to bregma were subjected to Nissl staining, and the ratio of the left thalamic area to the right thalamic area (ischemic side/intact side × 100) at the same level was measured. […] In addition, we have investigated the histological patterns of the ventral posterior nucleus of the thalamus (VP thalamic nucleus) which has reciprocal synaptic connections (fiber connections) with the ischemic core of the cerebral cortex. […] […] Data are represented as mean ± SE. Statistical analyses were conducted by Mann-Whitney U-test. In Table 2, *: p < 0.05, **: p < 0.01.

lipid peroxides = conditions: cited from earlier work
[2] = tested on: apoptosis-like nerve cell death; conditions: 1 fg/ml to 100 fg/ml; cited from earlier work
SH-SP rats [3] = assay: Ratio of cerebrocortical infarction after MCA permanent occlusion, intravenous infusion; type: in vivo
Experimental: (§1) First, we examined the actions of intravenous infusion of ginsenoside Rb1. For this purpose, for example, male SH-SP rats, weighing 250 - 300 g at the age of 12-13 weeks were used. The animals were bred in an air-conditioned room with a 12:12 hour light-dark cycle, and water and feeds were supplied ad libitum. The cortical branch of the left middle cerebral artery (MCA) was coagulated and cut under inhalation anesthesia.
After the water maze tests at the 4th week, the SH-SP rats were anesthetized with chloral hydrate, and they were perfused and fixed transcardially with 0.1 mole phosphate buffer containing 4% paraformaldehyde. The brains were dissected out and cerebrocortical infarcted areas were photographed. Areas of the left cerebral hemispheres and the left cerebrocortical infarct lesions were measured on the photographs by using an image analysis device. The left cerebrocortical infarcted areas were divided by the left cerebral hemispheric areas to calculate ratios of the cerebrocortical infarction (%).
Male SH-SP rats, at the age of 12-13 weeks, (stroke-prone spontaneously hypertensive rat: weighing 250 - 300 g), were used. Animals were housed in an air-conditioned room furnished with a 12:12 hour light-dark cycle, and water and feeds were supplied ad libitum. The mean blood pressure of the animals was 203±6.9 mmHg. The following experiments were conducted in accordance with the Guide for Animal Experimentation at Ehime University School of Medicine. The cortical branch of the left middle cerebral artery (MCA) of SH-SP rats were coagulated and cut, while their rectal temperature was maintained at 37±0.2°C under inhalation anesthesia. […]
After termination of the water maze tests at the 4th week, the SH-SP rats were anesthetized with chloral hydrate, and they were perfused and fixed transcardially with 0.1 mole phosphate buffer containing 4% paraformaldehyde. […] Areas of the left cerebral hemispheres and the left cerebrocortical infarct lesions were measured on the photographs by using an image analysis device. […]

[4] = tested on: normal cultured nerve cells or neurons; conditions: cited from earlier work
SH-SP rats [5] = type: in vivo; conditions: for learning disability in the water maze tests: also 1st day at the 4th week
Experimental: as §1
After MCA permanent occlusion, according to the method of the inventors of the present invention (Sakanaka and Tanaka) (Igase, K. et al., J. Cereb. Blood Flow Metab., 19, 298-306, 1999; Zhang B. et al., J. Stroke Cerebrovasc. Dis., 7, 1-9, 1998), water maze tests were performed for 4 days at the 2nd week and the 4th week, respectively, and the place navigation abilities of SH-SP rats were determined.
Male SH-SP rats, at the age of 12-13 weeks, (stroke-prone spontaneously hypertensive rat: weighing 250 - 300 g), were used. Animals were housed in an air-conditioned room furnished with a 12:12 hour light-dark cycle, and water and feeds were supplied ad libitum. The mean blood pressure of the animals was 203±6.9 mmHg. The following experiments were conducted in accordance with the Guide for Animal Experimentation at Ehime University School of Medicine. The cortical branch of the left middle cerebral artery (MCA) of SH-SP rats were coagulated and cut, while their rectal temperature was maintained at 37±0.2°C under inhalation anesthesia.
Immediately after MCA permanent occlusion, […] of physiological saline containing ginsenoside Rb1 at a concentration of 1µg/µl or 0.1µg/µl (60µg or 6µg as ginsenoside Rb1) was injected once into the left femoral vein. Then a catheter connected to the Alza osmotic minipump implanted subcutaneously in the back of each animal was inserted into the same vein from the point of the single injection of ginsenoside Rb1. Physiological saline containing ginsenoside Rb1 was filled in advance in the said osmotic minipump, and ginsenoside Rb1 in a dose of 60µg/day or 6µg/day was continuously infused into the blood stream through the catheter placed in the left femoral vein for 28 days. Flow rate of the ginsenoside Rb1-containing solution was 0.25µl/hour. Control animals with MCA permanent occlusion (ischemic control animals) and sham-operated animals received the same amount of physiological saline.
After the MCA permanent occlusion according to the method of the inventors of the present invention (Sakanaka and Tanaka) (Igase, K. et al., J. Cereb. Blood Flow Metab., 19, 298-306, 1999; Zhang B. et al., J. Stroke Cerebrovasc. Dis., 7, 1-9, 1998), water maze tests were performed for 4 days at the 2nd week and the 4th week, respectively, and place navigation abilities of the SH-SP rats were determined.

gerbils = conditions: cited from earlier work
cultured nerve cells = conditions: 1 - 100 fg/ml in culture medium; cited from earlier work
SH-SP rats [6] = assay: Ratio of cerebrovascular area in the non-infarcted ischemic penumbra of the parietal lobe; type: in vivo; conditions: for ischemic side (%), ratio of the cerebrovascular area: non-infarcted ischemic penumbra; for ischemic side (%), ratio of the cerebrovascular area / intact side (%), ratio of the cerebrovascular area: mean ± SE, N = 5; for intact side (%), ratio of the cerebrovascular area: per 1.27 mm^2
Text: Next, we prepared paraffin sections, 5 µm thickness, obtained from brain samples at the level about 2.8 mm posterior to the bregma. Then, we measured the cerebrovascular area per 1.27 mm^2 of the non-infarcted ischemic penumbra in the parietal lobe. This was done for each of the cerebral hemisphere of a group to which ginsenoside Rb1 had been administered intravenously (i.e. the brain tissues had been rescued by administration of ginsenoside Rb1) (Fig. 5). Four sheets of differential interference contrast micrograph were used for measurement (Fig. 6), and the ratio of the cerebrovascular area was calculated (Table 1).
The isolated brain was embedded in paraffin, and paraffin sections, 5µm thick, at the level approximately 2.8 mm posterior to bregma including the cerebrocortical infarct lesion were prepared. Then, we measured the cerebrovascular area per 1.27 mm^2 of the ischemic penumbra rescued by intravenous administration of ginsenoside Rb1. This was done for each of the cerebral hemispheres of the groups to which ginsenoside Rb1 had been administered intravenously (i.e. the brain tissues had been rescued by administering ginsenoside Rb1) (Fig. 5). Four sheets of differential interference contrast micrograph were used for measurement (Fig. 6), and the ratio of the cerebrovascular area was calculated (Table 1). The ratio of cerebrovascular area was also measured in the control hemisphere (intact side).
Fig. 5 is a drawing showing the region for measurement of blood vessel area in the non-infarcted ischemic penumbra of the parietal lobe in a 5µm thick section of the brain. In Fig. 5, the part enclosed with a rectangle is the region for measurement of blood vessel area: cerebrocortical layers II - IV of the parietal lobe; the part painted with black in Fig. 5 is the infarct lesion when ginsenoside Rb1 was administered; and the part shown in gray in Fig. 5 is the infarcted lesion when physiological saline was administered.
Data are represented by mean ± SE. Statistical analyses are conducted by ANOVA + Fisher's PLSD. N = 5.

[7] = in vivo, po; cited from earlier work
rats [8] = conditions: rat, in vivo
Text: It has also been reported that no effects of intracerebroventricular administration of ginsenoside Rb1 on brain temperature, cerebral blood flow and blood pressure are observed (Lim J.-H. et al. Neurosci. Res., 28, 191-200, 1997; Zhang B. et al., J. Stroke Cerebrovasc. Dis., 7, 1-9, 1998).

Bcl-XL = conditions: 1 fg/ml to 100 fg/ml; cited from earlier work
[9] = in vivo; cited from earlier work
SH-SP) rats = conditions: cited from earlier work
[10] = tested on: glutamate-mediated neurotoxicity; conditions: cited from earlier work
rats [11] = conditions: rat, in vivo; cited from earlier work
[12] = 6µg/day intravenous for 28 days after MCA permanent occlusion
[13] = 60µg/day intravenous for 28 days after MCA permanent occlusion

Experimental for Wistar rats: We used Wistar rats, (weighing about 300 g), which were loaded with 20 g of compression to the lower thoracic cord for 20 minutes, as an animal model for spinal cord injuries. The rats were anesthetized by inhalation of halothane in a mixture of nitrous oxide and oxygen and were loaded with 20 g of compression to the lower thoracic cord for 20 minutes. More than 30 minutes later, ginsenoside Rb1 dissolved in physiological saline was infused once into the left femoral vein (12 µg or 60 µg). Subsequently continuous intravenous administration of ginsenoside Rb1 was performed for 7 days by using an Alza osmotic minipump (12µg/day or 60µg/day). Control animals' and sham-operated animals were administered with the same amount of physiological saline (vehicle). The open field locomotor scores [Basso, Bettie and Bresnakan (BBB) scores] were measured before the loading of spinal cord injury, on the day of spinal cord injury, and from the 1st day to the 7th day after spinal cord injury in order to determine an index of motor functions (Basso D.M. et al., J. Neurotrauma, 13, 343-359, 1996). […] The rats were anesthetized with inhalation of halothane in a mixture of nitrous oxide and oxygen and were loaded with 20 g of compression to the lower thoracic cord for 20 minutes. More than 30 minutes later, ginsenoside Rb1 dissolved in physiological saline was injected once into the left femoral vein (12µg or 60µg), thereafter continuous intravenous administration of ginsenoside Rb1 was performed for 7 days by using an Alza osmotic minipump (12µg/day or 60µg/day). Control animals and sham-operated animals were administered with the same amount of physiological saline (vehicle). The open field locomotor scores [Basso, Bettie and Bresnakan (BBB) scores] were measured before loading spinal cord injury, on the day of spinal cord injury and from the 1st day to the 7th day after the spinal cord injury for use as an index of motor functions (Basso D.M. et al., J. Neurotrauma, 13, 343-359, 1996).

CC(C)=CCC[C@](C)(O[C@@H]1O[C@H](CO[C@@H]2O[C@H](CO)[C@@H](O)[C@H](O)[C@H]2O)[C@@H](O)[C@H](O)[C@H]1O)[C@H]1CC[C@]2(C)[C@@H]1[C@H](O)C[C@@H]1[C@@]3(C)CC[C@H](O[C@@H]4O[C@H](CO)[C@@H](O)[C@H](O)[C@H]4O[C@@H]4O[C@H](CO)[C@@H](O)[C@H](O)[C@H]4O)C(C)(C)[C@@H]3CC[C@]12C [ginsenoside Rb1, Ginsenoside Rb1]
ratio of area (%), left thalamic area to right thalamic area (SH-SP rats [1]; 6µg/day intravenous): 95.9 ± 3.3* % | count of nerve cells (SH-SP rats [1]; 6µg/day intravenous): 30.6 ± 2.9** | ratio of area (%), left thalamic area to right thalamic area (SH-SP rats [1]; 60µg/day intravenous): 95.3 ± 2.4* % | count of nerve cells (SH-SP rats [1]; 60µg/day intravenous): 31.5 ± 3.6** | formation of lipid peroxides (lipid peroxides; 100 fg/ml): slightly suppressive action | formation of lipid peroxides (lipid peroxides; lower concentration range than 100 fg/ml): no such effect was observed | apoptosis-like nerve cell death [2]: suppresses apoptosis-like nerve cell death | ratio of cerebrocortical infarction (SH-SP rats [3]; 6µg/day or 60µg/day intravenous for 28 days, compared with physiological saline group): significantly reduced | mean value of the ratio of cerebrocortical infarction compared with that of the physiological saline group (SH-SP rats [3]; groups intravenously administered, about 50% or less): ≤ 50% | actual volume of infarction relative to physiological saline group (SH-SP rats [3]; intravenous administration, inferred from the area ratio): about 1/4 | normal metabolic activity of cultured nerve cells [4]: no effect on normal metabolic activity | SNP-induced injuries ([4]; low extracellular concentrations (1 - 100 fg/ml)): protects only nerve cells against SNP-induced injuries | place navigation disability after MCA permanent occlusion (SH-SP rats [5]; 6µg/day or 60µg/day intravenous, compared with physiological saline group): significantly improved | learning disability in the water maze tests (SH-SP rats [5]; high dose (60µg/day), 4th day at the 2nd week, 3rd and 4th days at the 4th week): significantly ameliorated | learning disability in the water maze tests (SH-SP rats [5]; low dose (6µg/day), 3rd and 4th day at the 2nd and 4th week): significantly ameliorated | swimming speed of SH-SP rats (SH-SP rats [5]; rat, in vivo): No significant differences | delayed neuronal death and learning disability (gerbils; intracerebroventricular infusion starting immediately after 3 or 3.5 minutes carotid occlusion): suppresses the delayed neuronal death and learning disability | hippocampal CA1 pyramidal neurons rescued (gerbils; intraperitoneal 10 mg/kg/day or 20 mg/kg/day before ischemic loading): about 30% | delayed neuronal death and learning disability (gerbils; intraperitoneal 10 or 20 mg/kg/day once a day for one week in advance, 5 minutes carotid occlusion): significantly prevent | effect of administration after the ischemic insult (gerbils; intraperitoneal, after the ischemic insult): no effect | neuronal necrosis caused by ferrous sulfate (cultured nerve cells): reduces neuronal necrosis | ratios of the cerebrovascular areas, control side versus ischemic side (SH-SP rats [6]; 6µg/day and 60 µg/day intravenous, 28 days after MCA permanent occlusion): no significant difference | ischemic side (%), ratio of the cerebrovascular area (SH-SP rats [6]; [12]): 8.0 ± 0.58% | intact side (%), ratio of the cerebrovascular area (SH-SP rats [6]; [12]): 7.0 ± 0.64% | ischemic side (%), ratio of the cerebrovascular area (SH-SP rats [6]; [13]): 9.0 ± 0.52% | intact side (%), ratio of the cerebrovascular area (SH-SP rats [6]; [13]): 8.3 ± 0.92% | detection in blood [7]: can not be detected in blood | motor ability (BBB scores) (Wistar rats; 12µg/day or 60µg/day intravenous, 7th day after spinal cord injuries, dose-dependent): significantly ameliorated | paraplegia of both hindlimbs (Wistar rats; 60 µg/day intravenous after 20 g compression for 20 minutes, after 2 days): significantly ameliorated | wound healing of the dorsal skin incision (Wistar rats; rat, in vivo): no such adverse effects were noted | adverse effects (rats [8]): No adverse effects were detected | expression of Bcl-XL (Bcl-XL): increasing the expression | transfer to the central nervous system [9]: transferred rapidly | effect on cerebral infarction (SH-SP) rats; continuous intracerebroventricular infusion 0.6µg/day after MCA occlusion): significant suppressive effect | effect on cerebral infarction (SH-SP) rats; continuous intracerebroventricular infusion 6µg/day or 0.06µg/day after MCA permanent occlusion): no therapeutic effect | neurotoxicity [10]: increased neurotoxicity | glutamate-mediated neurotoxicity ([10]; high concentrations (0.11-11 µg/ml)): reduce glutamate-mediated neurotoxicity | brain temperature, cerebral blood flow and blood pressure (rats [11]): no effects
